Reference: patent US20040067991A1, “Tetrahydrobenzothiazole analogues as neuroprotective agents” (priority 2003, published 2004)
Entries after “also recorded” stand apart in the source; their conditions may differ. Where a name gives a salt, the structure may show the parent alone. Read-outs that look alike come from different tables or passages of the source.

What was measured:
[1] = system: PC12 cells; experiment: Protection of PC12 cells against camptothecin-induced cell death (BCECF AM fluorescence); assay type: cell-based
Description: The 2-amino-4,5,6,7-tetrahydrobenzothiazole hydrogen iodide, 1-(4-methylphenyl)-2-(4,5,6,7-tetrahydro-2-imino-3(2H)-benzothiazolyl)-ethanone hydrobromide, and analogues were tested for their ability to protect PC12 cells against the toxic agent, camptothecin. PC12 cells were cultured in RPMI1640 media containing 10% horse serum and 5% fetal calf serum (37° C., pH 7.4) until confluent. Thereafter, 2.2×10^4 cells per mL were added to each trough of a 96 well plate (approximately 6,270 cells per well 285 μL) and were left to grow for 12 h. The media then was removed and was replaced by media with and without the compounds to be tested, including precursor, PFTα, and numerous analogues (concentration 100-400 nM, prepared in DMSO to a final dilution of 0.4%, 8 wells per concentration). Following 6 h of incubation, camptothecin (40 μM) was added to 4 of each 8 wells, and the cells were incubated for a further 24 h. Cells then were gently washed twice with phosphate buffered saline (PBS: 0.1 M, 37° C., pH 7.4) and were incubated in PBS containing the live-cell indicator dye, 2′,7′-bis(2-carboxyethey)-5-6-carboxyfluorescein AM ester (BCECF AM: 5 μM) (Molecular Probes, CA), for 45 min in minimal light. This fluorescent dye was taken up and retained by live cells. Finally, the cells were washed twice in PBS and their fluorescence then was quantified (excitation: 490 nm, emission: 535 nm, Perkin Elmer HTS 7000).
PC12 cell survival was also assessed. One hundred percent cell survival was determined from cells incubated in the absence of both any compound and camptothecin. […] Compound-induced toxicity was assessed by comparing cells treated with compound at various concentrations in the absence of camptothecin with cells incubated in the absence of both compound and camptothecin. […] Compound-induced cellular protection was assessed by comparing cells incubated with camptothecin with cells incubated with camptothecin in the presence of compound, in a concentration-dependent manner.

[2] = system: primary hippocampal neurons; experiment: Neuronal survival of primary hippocampal neurons after excitotoxic insult (glutamate); assay type: cell-based, rat; conditions: for protection of hippocampal neurons against glutamate-induced death (in words): 0.04 μM 1 h before glutamate (20 μM), survival at 24 h; for neuron survival increased: neurons pretreated with compound, death induced by glutamate
Description: (§1) Dissociated hippocampal cell cultures were established from embryonic day 18 Sprague-Dawley rats (Harlan, Inc.) as described previously. See Culmsee et al. (2001) J. Neurochem. 77:220-28. Cells were grown in polyethyleneimine-coated plastic dishes or 22 m^2 glass coverslips, and incubated in Neurobasal medium containing B27 supplements, 2 mM L-glutamine, 25 mg/ml gentamycin, 1 mM Hepes (Gibco BRL) and 0.001% gentamicin sulfate. All experiments were performed using 9-10 day-old cultures. Camptothecin and etoposide (Signia) were prepared as 500× stocks in DMSO. Neuron survival was quantified by established methods. See Mattson et al. (1993) Neuron 10:243-54. Briefly, viable neurons in premarked fields (10× objective) were counted before experimental treatment and at specified time points thereafter. Neurons with intact neurites of uniform diameter and soma with a smooth round appearance were considered viable. In contrast neurons with fragmented neurites and vacuolated soma were considered non-viable.
Primary hippocampal neurons were prepared and cultured as described above. Cultures were pretreated with compounds 14 and 1 (0.04 μM) 1 h before exposure to glutamate (20 μM) in Locke's medium. The percentage of neuronal survival 24 h after the onset of insult is given as mean values±SD.

[3] = system: rat hippocampal neurons; experiment: Neuronal survival assay in cultured hippocampal neurons treated with camptothecin or etoposide; assay type: cell-based; conditions: for neuroprotection of hippocampal neurons against camptothecin (in words): 100 nM, added 1 h before camptothecin 5 μM; for neuroprotection of hippocampal neurons against etoposide (in words): added 1 h before etoposide 2.5 μM; for protection of primary hippocampal cells against death induced by camptothecin and etoposide (in words): camptothecin 5 μM, etoposide 2.5 μM; for protection of primary hippocampal cells against death induced by camptothecin and etoposide (in words) / neuronal survival: 24 h; for neuronal survival: pretreated with 100 nM of analogue, then camptothecin (5 μM)
Description: 2-amino-4,5,6,7-tetrahydrobenzothiazole hydrogen and 1-(4-methylphenyl)-2-(4,5,6,7-tetrahydro-2-imino-3(2H)-benzothiazolyl)-ethanone hydrobromide and their analogues were assessed for their ability to protect rat hippocampal cells in culture from camptothecin ([…]).
as §1, with “See Culmsee et al. (2001) J. Neurochem.” left out, “See Mattson et al. (1993) Neuron 10:243-54.” left out

[4] = system: caspase activation; experiment: Caspase activation; assay type: cell-based
[5] = system: C57BL/6 mice given MPTP; experiment: MPTP model: striatal dopamine, serotonin and metabolites by HPLC; assay type: in vivo, mouse; conditions: striatal tissue
Description: (§2) The ability of PFTα (5) and compounds 5× (Z-1-117) and 13 (Z-1-143) to protect dopaminergic neurons against MPTP toxicity was tested. MPTP (20 mg/kg) was administered intraperitoneally to 2 month-old male C57BL/6 mice by four injections at two hour intervals to induce dopaminergic cell death.
In a separate experiment, levels of striatal dopamine, dopamine metabolites, serotonin, and serotonin metabolites were measured using HPLC analysis. Specifically, mice were euthanatized, and striatal tissue samples were removed and levels of dopamine, DOPAC, HVA, 5-HT, 5-HIAA were quantified. […] There was no significant difference in levels of serotonin or serotonin metabolites.

[6] = system: substantia nigra dopaminergic neurons; experiment: MPTP model: TH-immunostained cells in the substantia nigra; assay type: in vivo, mouse; conditions: 2 mg/kg, seven days after treatment, 4 mice/group
Description: as §2
In yet another experiment, the number of TH-immunostained cells in the substantia nigra was assessed in four animals seven days after treatment. Mice were euthanized and perfused by 4% paraformadehyde transcardially. Brain sections were cut and immunostained with an antibody against TH. PFT-A and compound 5× attenuated MPTP-induced loss of substantia nigra dopaniinergic neurons.

[7] = system: striatal tyrosine hydroxylase (TH); experiment: MPTP model: striatal tyrosine hydroxylase levels by Western blot densitometry; assay type: in vivo, mouse; conditions: 2 mg/kg, 7 days later, hydrobromide
Description: as §2
Levels of tyrosine hydroxylase (TH), the enzyme that catalyzes the rate-limiting step in dopamine synthesis, also were assessed in the striatum using Western blot analysis.

[8] = system: C57BL/6 mice given MPTP; experiment: MPTP-induced Parkinson's disease model: rotarod behavioral tests; assay type: in vivo, mouse; conditions: 2 mg/kg i.p. 30 min before first and 30 min after last MPTP injection; day 7
Description: as §2
At seven days, behavioral tests were performed using the rotarod test equipment. The number of falls and running times were measured.

[9] = system: C57BL/6 mice, middle cerebral artery occlusion; experiment: Transient focal cerebral ischemia/reperfusion (middle cerebral artery occlusion) stroke model; assay type: in vivo, mouse
Description: Surgery was performed in anesthetized (xylazine 5 mg/kg, chloral hydrate 350 mg/kg) mice (3 month old C57B1/6) in accordance with a protocol approved by the NIH Animal Care and Use Committee. The focal ischemia/reperfusion model has been described previously. See Bruce et al. (1996) Nat. Med. 2:788-94. This method involves occluding the middle cerebral artery for 1 h with a nylon thread, and then removing it to allow reperfusion. During the procedure, mice were maintained at 37° C. and blood gases, flow and pressure were monitored. At 24 h after ischemia, mice were anesthetized, decapitated, and their brains were cut into 2 mm coronal sections, which then were stained with triphenyltetrazolium for 30 min at 37° C. Images of the stained brains were captured by digital camera for quantitative analysis of infarct area and volume.
The infarct volume for vehicle was 40 mm^3. When mice were treated with PFTα, infarct volume was 20 mm^3, a highly significant 50% decrease.

[10] = read-out: PD50; concentration of compounds required to induce 50% protection (PC50) of PC12 cells from camptothecin-induced cell-death; 6 h preincubation with compound, camptothecin 40 μM for 24 h
[11] = compound 2 mg/kg + MPTP, mean±SE, 4-6 mice/group

**Q.** What does the source list for `N=c1sc2c(n1Cc1ccccc1)CCCC2` [Compound 14, 3-(phenylmethyl)-4,5,6,7-tetrahydro-2(3H)-benzothiazolimine Hydrobromide]?
**A.** EC50 [1, 10]: 741 nM; protection of hippocampal neurons against glutamate-induced death (in words) ([2]; Hydrobromide): protect; also recorded: at least partially reversed; neuron survival increased [2]: 133%; neuroprotection of hippocampal neurons against camptothecin (in words) [3]: significant neuroprotection; neuroprotection of hippocampal neurons against etoposide (in words) [3]: more active than compound PFTα; protection of primary hippocampal cells against death induced by camptothecin and etoposide (in words) ([3]; Hydrobromide): had neuroprotection; also recorded: highly potency; neuronal survival [3]: 61%; caspase activation (in words) [4]: suppress caspase activation

**Q.** Which EC50 ([1]; 6 h preincubation with compound, camptothecin 40 μM for 24 h; read-out: PD50; concentration of compounds required to induce 50% protection (PC50) of PC12 cells from camptothecin-induced cell-death) does the source give for `Br.CCC(=O)Cn1c2c(sc1=N)CCCC2` [Compound 1, 1-(4.5,6,7-tertahydro-2-imino-3(2H)-benzothiazolyl)-2-butanone Hydrobromide] here?
**A.** 571 nM

**Q.** What about the “protection of hippocampal neurons against glutamate-induced death (in words)” value [2] of the same compound?
**A.** protect

**Q.** What about the neuron survival increased [2] of the same compound?
**A.** 39%

**Q.** And the “neuroprotection of hippocampal neurons against camptothecin (in words)” value [3]?
**A.** significant neuroprotection

**Q.** And the “neuroprotection of hippocampal neurons against etoposide (in words)” value [3]?
**A.** more active than compound PFTα

**Q.** And the “protection of primary hippocampal cells against death induced by camptothecin and etoposide (in words)” value ([3]; Hydrobromide)?
**A.** had neuroprotection; also recorded: highly potency

**Q.** And the neuronal survival [3]?
**A.** 65%

**Q.** What about the “caspase activation (in words)” value [4] of the same compound?
**A.** suppress caspase activation

**Q.** How did the “levels of dopamine, DOPAC, and HVA as compared to the MPTP-induced reduction (in words)” value ([5]; 2 mg/kg) turn out when `Cc1ccc(C(=O)Cn2c3c(sc2=N)CCCC3)cc1` [Compound 5, 1-(4-methylphenyl)-2-(4,5,6,7-tetrahydro-2-imino-3(2H)-benzothiazolyl)-ethanone hydrobromide, reference compound] was run?
**A.** statistically significant increase

**Q.** And the 5-HIAA [5, 11]?
**A.** 245 ± 33 pg/mg tissue weight

**Q.** And the 5-HT [5, 11]?
**A.** 419 ± 20 pg/mg tissue weight

**Q.** What about the DOPAC [5, 11] of the same compound?
**A.** 170 pg/mg tissue weight

**Q.** And the Dopamine [5, 11]?
**A.** 3314 pg/mg tissue weight

**Q.** And the HVA [5, 11]?
**A.** 328 ± 35 pg/mg tissue weight

**Q.** And the “neuronal survival of PC12 cells increased” value ([1]; compared to PC12 cells treated with camptothecin in the absence of PFTα)?
**A.** up to 70%

**Q.** What about the “protection of PC12 cells against camptothecin-induced death (in words)” value ([1]; compounds 100-400 nM, camptothecin 40 μM 24 h) of the same compound?
**A.** protected

**Q.** And the EC50 [1, 10]?
**A.** 252 nM

**Q.** What about the “MPTP-induced loss of substantia nigra dopaminergic neurons, TH-positive cells (in words)” value [6] of the same compound?
**A.** attenuated

**Q.** And the “MPTP-induced loss of striatal tyrosine hydroxylase (in words)” value ([7]; listed as PFT-a)?
**A.** reverse the MPTP reduction in TH levels

**Q.** What about the “MPTP-induced loss of striatal tyrosine hydroxylase (in words)” value ([7]; listed as PFT-alpha) of the same compound?
**A.** attenuate

**Q.** What about the “improved cell survival compared to vehicle controls after pretreatment” value ([3]; 200 nM pretreatment 1 hour, camptothecin 5 μM or etoposide 2.5 μM) of the same compound?
**A.** improved cell survival

**Q.** And the “neuroprotection of hippocampal neurons against etoposide (in words)” value [3]?
**A.** had activity

**Q.** And the “protection of primary hippocampal cells against death induced by camptothecin and etoposide (in words)” value ([3]; listed as PFTα, hydrobromide)?
**A.** protects; also recorded: potent activity

**Q.** What about the “toxicity when administered alone to hippocampal cells” value ([3]; concentrations up to 400 nM) of the same compound?
**A.** neither PFTα (5) nor its precursor were toxic

**Q.** And the neuronal survival [3]?
**A.** 62%

**Q.** What about the “number of falls on rotarod (in words)” value [8] of the same compound?
**A.** statistically significant decease

**Q.** And the “running time on rotarod (in words)” value [8]?
**A.** statistically significant increase

**Q.** What about the “brain entry after systemic administration (in words)” value ([9]; 2 mg/kg i.p.) of the same compound?
**A.** entered and acted in the brain

**Q.** What about the “infarct area at four different brain levels (in words)” value ([9]; 2 mg/kg i.p.) of the same compound?
**A.** reduction in the infarct area

**Q.** And the infarct volume ([9]; 2 mg/kg i.p. before 1 h MCA occlusion, 24 h after ischemia)?
**A.** 20 mm^3

**Q.** And the “decrease in infarct volume” value ([9]; 2 mg/kg i.p., versus vehicle (40 mm^3))?
**A.** 50%
